Like-named read-outs stand apart in the source and are kept apart here.
Test system: primary murine skeletal myocytes
Assay: TAG accumulation in primary murine skeletal myocytes
Format: cell-based
Details: Mus musculus, read-out: Activity Score (IC50), triacylglyceride (TAG) accumulation
[1] = primary murine skeletal myocytes

| SMILES | IC50 [1] | IC50 |
| --- | --- | --- |
| COc1ccc(-c2csc(NC(=O)c3ccc(OCC(N)=O)c(OC)c3)n2)cc1 [Cpd. 17, 4-(2-amino-2-oxoethoxy)-3-methoxy-N-(4-(4-methoxyphenyl)thiazol-2-yl)benzamide] | 1000 to 10000 nM |  |
| COCCNC(=O)CNc1ccc(C(=O)Nc2nc(-c3ccc(OC)cc3Cl)cs2)cc1 [compound 73, N-(4-(2-chloro-4-methoxyphenyl)thiazol-2-yl)-4-((2-((2-methoxyethyl)amino)-2-oxoethyl)amino)benzamide] | < 1000 nM |  |
| COc1cc(C(=O)Nc2nc(-c3ccc(Cl)c(Cl)c3)cs2)ccc1O [Cpd. 5, N-(4-(3,4-dichlorophenyl)thiazol-2-yl)-4-hydroxy-3-methoxybenzamide] | 1000 to 10000 nM |  |
| COc1cc(C(=O)Nc2nc(-c3ccccc3)cs2)ccc1O [Cpd. 2, 4-hydroxy-3-methoxy-N-(4-phenylthiazol-2-yl)benzamide] | > 10000 nM |  |
| COc1ccc(-c2csc(NC(=O)c3ccc(OCC(=O)N4CCOCC4)cc3)n2)c(Cl)c1 [Cpd. 54, N-(4-(2-chloro-4-methoxyphenyl)thiazol-2-yl)-4-(2-morpholino-2-oxoethoxy)benzamide] | < 1000 nM |  |
| COc1ccc(-c2csc(C(=O)Nc3ccc(OCC(=O)N4CCOCC4)c(OC)c3)n2)cc1 [Cpd. 91, N-(3-methoxy-4-(2-morpholino-2-oxoethoxy)phenyl)-4-(4-methoxyphenyl)thiazole-2-carboxamide] |  | > 10000 nM |
| O=C(Nc1nc2ccccc2s1)c1ccc(OCC(=O)N2CCOCC2)cc1 [Cpd. 87, N-(benzo[d]thiazol-2-yl)-4-(2-morpholino-2-oxoethoxy)benzamide] | > 10000 nM |  |
| COc1ccc(-c2csc(NC(=O)c3cccc(OCC(=O)N4CCOCC4)c3)n2)cc1 [Cpd. 94, N-(4-(4-methoxyphenyl)thiazol-2-yl)-3-(2-morpholino-2-oxoethoxy)benzamide] | 1000 to 10000 nM |  |
| COc1ccc(-c2csc(NC(=O)c3ccc(OCC(=O)N4CCCCC4)c(OC)c3)n2)cc1 [Cpd. 8, 3-methoxy-N-(4-(4-methoxyphenyl)thiazol-2-yl)-4-(2-oxo-2-(piperidin-1-yl)ethoxy)benzamide] | 1000 to 10000 nM |  |
| COc1ccc(-c2csc(NC(=O)c3ccc(OCC(=O)N4CCOCC4)nc3)n2)cc1 [Cpd. 93, N-(4-(4-methoxyphenyl)thiazol-2-yl)-6-(2-morpholino-2-oxoethoxy)nicotinamide] | > 10000 nM |  |

Second part, led by results:

| IC50 [1] | SMILES | IC50 |
| --- | --- | --- |
| < 1000 nM | COCCOc1ccc(-c2csc(NC(=O)c3ccc(OCC(=O)N4CCOCC4)cc3)n2)cc1 [Cpd. 43, N-(4-(4-(2-methoxyethoxy)phenyl)thiazol-2-yl)-4-(2-morpholino-2-oxoethoxy)benzamide] |  |
| 1000 to 10000 nM | COc1cc(C(=O)Nc2nc(-c3ccc(Cl)cc3)cs2)ccc1O [Cpd. 4, N-(4-(4-chlorophenyl)thiazol-2-yl)-4-hydroxy-3-methoxybenzamide] |  |
| < 1000 nM | COc1cc(C(=O)Nc2nc(-c3ccccc3)c(Cc3ccccc3)s2)ccc1OCC(=O)N1CCOCC1 [Cpd. 84, N-(5-benzyl-4-phenylthiazol-2-yl)-3-methoxy-4-(2-morpholino-2-oxoethoxy)benzamide] |  |
| < 1000 nM | COc1cc(C(=O)Nc2nc(-c3ccc(OC(F)(F)F)cc3)cs2)ccc1OCC(=O)N1CCOCC1 [Cpd. 26, 3-methoxy-4-(2-morpholino-2-oxoethoxy)-N-(4-(4-(trifluoromethoxy)phenyl)thiazol-2-yl)benzamide] |  |
| < 1000 nM | COc1cc(C(=O)Nc2nc(-c3ccc(C#N)cc3)cs2)ccc1OCC(=O)N1CCOCC1 [Cpd. 32, N-(4-(4-cyanophenyl)thiazol-2-yl)-3-methoxy-4-(2-morpholino-2-oxoethoxy)benzamide] |  |
| < 1000 nM | COc1ccc(-c2csc(NC(=O)c3ccc(OCC(=O)N4CCOCC4)c(OC)c3)n2)c(OC)c1 [Cpd. 36, N-(4-(2,4-dimethoxyphenyl)thiazol-2-yl)-3-methoxy-4-(2-morpholino-2-oxoethoxy)benzamide] |  |
| < 1000 nM | CC(C)c1ccc(-c2csc(NC(=O)c3ccc(OCC(=O)N4CCOCC4)cc3)n2)cc1 [Cpd. 45, N-(4-(4-isopropylphenyl)thiazol-2-yl)-4-(2-morpholino-2-oxoethoxy)benzamide] |  |
| 1000 to 10000 nM | COc1ccc(-c2csc(NC(=O)CCC(=O)N3CCOCC3)n2)cc1 [Cpd. 82, N-(4-(4-methoxyphenyl)thiazol-2-yl)-4-morpholino-4-oxobutanamide] |  |
